# Counter-ions that a name gives are not always drawn.
# Tested on: bone marrow
# Experiment: Bone marrow histology (cellularity, fibrosis)
# Format: in vivo, human
# Procedure: Responses were measured every 4 weeks per International Working Group for MPN Research and Treatment (IWG-MRT) criteria (Tefferi A et al., Blood 108:1497-1503, 2006). Assessment of bone marrow histology was performed at baseline and every 24 weeks of therapy. Changes in JAK2V617F allele burden in the granulocyte fraction of peripheral blood were measured as previously described (Kittur J et al., Cancer 109:2279-2284, 2007); the assessments were at baseline and every 4 weeks during the first 6 cycles, and every 6th cycle of therapy in the extension study.
smiles,measurement,setting,value
"Cc1cnc(Nc2ccc(OCCN3CCCC3)cc2)nc1Nc1cccc(S(=O)(=O)NC(C)(C)C)c1 [TG101348, N-tert-butyl-3-[(5-methyl-2-{[4-(2-pyrrolidin-1-ylethoxy)phenyl]amino}pyrimidin-4-yl)amino]benzenesulfonamide dihydrochloride monohydrate]",Bone marrow fibrosis grade,"after 18 cycles, person, V617F negative PMF, 3+ at baseline, starting dose 240, follow-up 440 mg/day",0
same,Bone marrow cellularity,"after 18 cycles, person, V617F negative PMF, 60% at baseline, starting dose 30, follow-up 520 mg/day",5-10%
same,BM cellularity and reticulin fibrosis with extended treatment,preliminary observations,reduction in BM cellularity and reticulinfibrosis

# From patent US20130252988A1, “COMPOSITIONS AND METHODS FOR TREATING MYELOFIBROSIS” (TARGEGEN, INC., priority 2010, published 2013)
